Assays:
[1] = Stability test: storage at 30° or 37° C. for 12 months, amount of therapeutic agent remaining assayed at 2 and 12 months; type: physicochemical
[2] = Stability in the presence of acid or of polyethylene glycol (general statements, no test described); type: physicochemical
[3] = cited from earlier work

C/C(=C\C(=O)OCCCCCCCCC(=O)O)C[C@@H]1OC[C@H](C[C@@H]2O[C@H]2[C@@H](C)[C@H](C)O)[C@@H](O)[C@H]1O [Pseudomonic acid]
% remaining after 2 months at 37° C. [1]: Dec | % remaining after 12 months at 30° C. [1]: Dec | % remaining after 12 months at 37° C. [1]: Dec | % remaining after 2 months at 30° C. ([1]; storage, 1460 h): 78% | stability in the presence of polyethylene glycol, or a derivative thereof [2]: improved stability | stability in the presence of acid [3]: tend to undergo a rearrangement reaction in the presence of acid
